Consider 28 compounds from patent publication US10118936B2, “Arginase inhibitors and methods of use” (ASTRAZENECA AB, priority 2009, dated 2018).

Series [1] concerns the target T1, human arginase II (hArgII) (Homo sapiens, UniProt P78540).
T1 sequence (P78540 23-354): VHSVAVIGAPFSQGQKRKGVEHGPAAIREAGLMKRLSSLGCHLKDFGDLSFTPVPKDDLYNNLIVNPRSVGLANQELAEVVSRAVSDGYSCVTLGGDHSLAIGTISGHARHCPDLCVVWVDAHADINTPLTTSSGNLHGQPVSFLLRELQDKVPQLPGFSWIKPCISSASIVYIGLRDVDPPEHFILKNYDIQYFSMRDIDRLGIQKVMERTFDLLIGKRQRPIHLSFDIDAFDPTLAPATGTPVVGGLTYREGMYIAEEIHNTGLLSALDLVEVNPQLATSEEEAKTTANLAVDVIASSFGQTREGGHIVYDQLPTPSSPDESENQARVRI
Kind of series: QuantiChrom colorimetric arginase inhibition assay, human arginase II. The format is biochemical. The note with it: IC50 from 12-concentration curve converted to Ki by Cheng-Prusoff equation. The protocol:
(§1) Quantitative determination of arginase activity was performed by a colorimetric method using the QuantiChrom™ Arginase Assay Kit available from BioAssay Systems (Hayward, Calif., Catalog No. DARG-200), which was used according to the manufacture's protocol. Briefly, the method utilizes a chromogen that forms a colored complex specifically with urea produced in the arginase reaction. […] The intensity of the color is directly proportional to the arginase activity in the sample.
(§2) The rate of urea production was measured in the presence of twelve different concentrations of each potential inhibitor compound. The half maximal inhibitory concentration (IC50) was determined by constructing a dose-response curve. As IC50 values are dependent upon the measurement conditions, the IC50 values are converted to the inhibitor binding affinity (Ki) using the Cheng-Prusoff equation and the measured affinity constant (Km) of L-arginine.

The subject of series [2] is arginase. Kind of series: Arginase inhibition, potency comparisons (isoform not stated). The note with it: relative potency statements in text. The format is biochemical, human. The protocol:
Quantitative determination of arginase activity was performed by a colorimetric method using the QuantiChrom™ Arginase Assay Kit available from BioAssay Systems (Hayward, Calif., Catalog No. DARG-200), which was used according to the manufacture's protocol. Briefly, the method utilizes a chromogen that forms a colored complex specifically with urea produced in the arginase reaction. See, Mellerup, “Colorimetric method for rapid determination of serum arginase,” Clin. Chem. 13, 900-08 (1967). The intensity of the color is directly proportional to the arginase activity in the sample.
The rate of urea production was measured in the presence of twelve different concentrations of each potential inhibitor compound. The half maximal inhibitory concentration (IC50) was determined by constructing a dose-response curve. As IC50 values are dependent upon the measurement conditions, the IC50 values are converted to the inhibitor binding affinity (Ki) using the Cheng-Prusoff equation and the measured affinity constant (Km) of L-arginine. See, e.g., Cheng et al., “Relationship between the inhibition constant (K1) and the concentration of inhibitor which causes 50 percent inhibition (I50) of an enzymatic reaction,” Biochem. Pharmacol. 22, 3099-108 (1973).
In Table 6, the Ki values reflect the potency of these molecules to inhibit the catalytic activity of arginase to produce urea from the substrate L-arginine. […] That is, racemic materials were compared to racemic controls. Thus, there are several examples that have similar potencies to Rac-ABH.
Shortening the alkyl chain by one carbon atom as in the phenoxyethyl compound 1ad also results in a potency loss. Thus, there appears to be definitive structure-activity features that results in increased potency at the molecular target, arginase, in these α,α-disubstituted derivatives.

In series [3] the target is T2, human arginase I (hArgI) (Homo sapiens, UniProt P05089).
T2 sequence (P05089 1-322): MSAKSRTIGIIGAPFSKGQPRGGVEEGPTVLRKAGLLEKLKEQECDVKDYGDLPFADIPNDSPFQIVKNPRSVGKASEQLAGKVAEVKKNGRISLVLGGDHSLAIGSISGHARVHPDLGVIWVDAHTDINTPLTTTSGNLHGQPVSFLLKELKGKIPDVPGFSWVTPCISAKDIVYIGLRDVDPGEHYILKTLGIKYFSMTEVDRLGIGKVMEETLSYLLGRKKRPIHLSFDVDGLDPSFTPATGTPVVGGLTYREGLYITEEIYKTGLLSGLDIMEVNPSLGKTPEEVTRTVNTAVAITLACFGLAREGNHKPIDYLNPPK
In words: QuantiChrom colorimetric arginase inhibition assay, human arginase I. The format is biochemical. To be noted: IC50 from 12-concentration curve converted to Ki by Cheng-Prusoff equation. The protocol: as §1, §2

The conditions of series [4]: cited from earlier work.

SMILES strings stand for the structures. pKi: −log10 of the molar value. Entries after “also recorded” stand apart in the source; their conditions may differ. Structures can show the parent of a compound that is named as a salt.

As usually defined, the pKi is −log10 of the Ki, conventionally taken in molar units. A high value points to a small Ki. For `N=C(NO)NCC[C@H](N)C(=O)O` [Nor-NOHA, N^ω-hydroxy-nor-1-arginine, reference compound], the pKi in series [1] was 6.30 to 7.00.

With `N[C@@](CO)(CCCCB(O)O)C(=O)O` (single isomer, unassigned) [Compound 1ar], in series [2], the “potency as arginase inhibitor, compared in words” value was “most potency as an arginase inhibitor by two orders of magnitude compared to compound 1as; also recorded: as potent as ABH; also recorded: almost two orders of magnitude) more potent than the other enantiomer”. Moreover, the pKi in series [3] and in series [1] was 8.00 to 10.00 each time.

For `NC(CCCCB(O)O)(CCCC1CCNCC1)C(=O)O` (stereo not drawn) [Compound 1az, 2-Amino-6-borono-2-(3-(piperidin-4-yl)propyl)hexanoic acid], the pKi in series [3] and in series [1] was 8.00 to 10.00 each time.

With `Cl.NC(CCCCB(O)O)(CCOCc1ccccc1)C(=O)O` (stereo not drawn) [Compound 1aa, 2-Amino-2-(benzyloxyethyl)-6-boronohexanoic acid hydrochloride], the “potency as arginase inhibitor, compared in words” value in series [2] is given as “potency is lost”. Further, the pKi in series [3] and in series [1] was 7.00 to 8.00 in each case.

As to `Cl.NC(CCCCB(O)O)(CCCOc1ccccc1)C(=O)O` (stereo not drawn) [Compound 1d], in series [2], the “potency as arginase inhibitor, compared in words” value is “as potent as Rac-ABH”.

Take `Cl.NC(CCCCB(O)O)(CCCOc1ccccc1)C(=O)O` (stereo not drawn) [Compound 1d, 2-Amino-6-(borono-2-(3-phenoxypropyl)hexanoic acid hydrochloride]: the pKi in series [3] and in series [1] was 8.00 to 10.00 throughout.

`CC(N)(CCCCB(O)O)C(=O)O` (stereo not drawn) [Compound 1ao, 2-Amino-6-borono-2-methylhexanoic acid hydrochloride]: the pKi in series [3] is 8.00 to 10.00; in series [1], 7.00 to 8.00.

Consider `NC(CCCCB(O)O)C(=O)O` (racemic) [Rac-ABH, reference compound], for which the pKi in series [3] was 8.00 to 10.00; in series [1], 7.00 to 8.00.

Take `O=C1CCc2ccccc2O1` [dihydrocoumarin]: in series [4] (37° C. in the stomach), the half-life result is reported as “about 1 hour”.

Take `NCCCCC(N)(CCCCB(O)O)C(=O)O` (stereo not drawn) [Compound 1bb, 2,6-Diamino-2-(4-boronobutyl)hexanoic acid]: the pKi in series [3] and in series [1] was 8.00 to 10.00 each time.

As to `COc1cccc(NC(=O)N2CCN(CCCC(N)(CCCCB(O)O)C(=O)O)CC2)c1` (stereo not drawn) [Compound 39c, 2-Amino-6-borono-2-(3-(4-(3-methoxyphenylcarbamoyl)piperazin-1-yl)propyl)hexanoic acid], the pKi in series [3] and in series [1] was 7.00 to 8.00 each time.

On to `CC[C@H](C)C(=O)O[C@H]1C[C@@H](C)C=C2C=C[C@H](C)[C@H](CC[C@@H]3C[C@@H](O)CC(=O)O3)[C@H]21` [lovastatin, reference compound], for which the “half-life of lactone hydrolysis” value in series [4] (gastric pH and temperature) is “about 1 hour”.

For the compound `NC(CO)(CCCCB(O)O)C(=O)O` (stereo not drawn) [Compound 1aq, 2-Amino-6-borono-2-(hydroxymethyl)hexanoic acid hydrochloride], the pKi was 8.00 to 10.00 in series [3] and 7.00 to 8.00 in series [1].

In the case of `NC(CCCCB(O)O)(Cc1ccccc1)C(=O)O` (stereo not drawn) [Compound 1a, 2-Amino-2-benzyl-6-boronohexanoic acid hydrochloride], the pKi in series [3] and in series [1] was 6.30 to 7.00 each time.

For `Cc1ccc(S(=O)(=O)NCCCCC(N)(CCCCB(O)O)C(=O)O)cc1` (stereo not drawn) [Compound 40a, 2-Amino-6-borono-2-(4-(4-methylphenylsulfonamido)butyl)hexanoic acid], the pKi in series [3] and in series [1] was 7.00 to 8.00 throughout.

On to `CCC(=O)CC(N)(CCCCB(O)O)C(=O)O` (stereo not drawn) [Compound 1aw, 2-Amino-6-borono-2-(2-oxobutyl)hexanoic acid hydrochloride], for which the pKi in series [3] and in series [1] was 7.00 to 8.00 throughout.

Turning to `CC(N)(CCNC(N)=NO)C(=O)O` (stereo not drawn) [Compound 54a, 2-Amino-4-(2-hydroxyguanidino)-2-methylbutanoic acid dihydrochloride], the pKi in series [3] and in series [1] was 6.30 to 7.00 throughout.

Consider `N[C@](CO)(CCCCB(O)O)C(=O)O` (single isomer, unassigned) [Compound 1as], for which the pKi in series [3] and in series [1] was 6.30 to 7.00 each time.

As to `NC(CCCCB(O)O)(CCCOc1ccc(F)cc1)C(=O)O` (stereo not drawn) [Compound 1h, 2-Amino-6-borono-2-(3-(4-fluorophenoxy)propyl)hexanoic acid], the pKi is 8.00 to 10.00 in series [3] and 7.00 to 8.00 in series [1].

Regarding `NC(CCCCB(O)O)(CCCCc1ccccc1)C(=O)O` (stereo not drawn) [Compound 1e, 2-Amino-6-borono-2-(4-phenylbutyl)hexanoic acid], the pKi in series [3] and in series [1] was 7.00 to 8.00 in each case.

Regarding `NC(CCCCB(O)O)(CCCN1CCNCC1)C(=O)O` (stereo not drawn) [Compound 1ba], the pKi in series [3] and in series [1] was 7.00 to 8.00 each time.

For the compound `N#Cc1ccc(C(=O)NCCOCCC(N)(CCCCB(O)O)C(=O)O)cc1` (stereo not drawn) [Compound 38a, 2-Amino-6-borono-2-(2-(2-(4-cyanobenzamid)ethoxy)ethyl)hexanoic acid trifluoroacetate], the pKi in series [3] and in series [1] was 7.00 to 8.00 each time.

Take `CC(C)CC(N)(CCCCB(O)O)C(=O)O` (stereo not drawn) [Compound 1ap, 2-Amino-6-borono-2-isobutylhexanoic acid hydrochloride]: the pKi in series [3] and in series [1] was 7.00 to 8.00 in each case.

Take `COc1cccc(NC(=O)NCCOCCC(N)(CCCCB(O)O)C(=O)O)c1` (stereo not drawn) [Compound 39a, 2-Amino-6-borono-2-(2-(2-(3-(3-methoxyphenyl)ureido)ethoxy)ethyl)hexanoic acid]: the pKi in series [3] and in series [1] was 7.00 to 8.00 each time.

As to `NC(CCCCB(O)O)(CCOc1cccc(Cl)c1)C(=O)O` (stereo not drawn) [Compound 1ad, 2-Amino-6-borono-2-(2-(3-chlorophenoxy)ethyl)hexanoic acid], the “potency as arginase inhibitor, compared in words” value in series [2] is recorded as “potency loss”. For the same compound, the pKi in series [3] and in series [1] was 7.00 to 8.00 in each case.

Regarding `Cl.NC(CCCO)(CCCCB(O)O)C(=O)O` (stereo not drawn) [Compound 1ak, 2-Amino-6-borono-2-(3-hydroxypropyl)hexanoic acid hydrochloride], the “potency as arginase inhibitor, compared in words” value in series [2] is “less potent”.

In the case of `CC(=O)NCCOCCC(N)(CCCCB(O)O)C(=O)O` (stereo not drawn) [Compound 38b, 2-(2-(2-Acetamidoethoxy)ethyl)-2-amino-6-boronohexanoic acid], the pKi in series [3] and in series [1] was 6.30 to 7.00 in each case.

Turning to `NC(CCCCB(O)O)(CC(=O)c1ccccc1)C(=O)O` (stereo not drawn) [Compound 1ax, 2-Amino-6-borono-2-(2-oxo-2-phenylethyl)hexanoic acid hydrochloride], the pKi in series [3] and in series [1] was 7.00 to 8.00 in each case.
